Reference: patent US9802918B2, “Pyridineamine compounds useful as Pim kinase inhibitors” (Incyte Corporation, priority 2015, dated 2017)
Each block holds one compound with its values, some of them ahead of it.

Tests used:
Format in all cases: biochemical
Pim-1 = Pim-1 (Homo sapiens (Human), UniProt P11309); experiment: Pim-1 kinase assay; details: 1 mM ATP; read-out: Pim1 IC50
Experimental: Supplementation of the STOP buffer with beads and stopping the reactions were done under reduced light. Prior to the stopping reactions STOP buffer with beads was preincubated for 1 h in the dark at room temperature. After stopping the reactions, plates were incubated for 1 h in the dark at room temperature before reading on a PHERAstar FS plate reader (BMG Labtech) under reduced light.

Pim-3 = Pim-3 (Homo sapiens (Human), UniProt Q86V86); experiment: Pim-3 kinase assay; details: 1 mM ATP; read-out: Pim3 IC50
Experimental: Pim-1 and Pim-3 kinase assays-20 μL reactions were run in white 384 well polystyrene plates dotted with 0.8 μL compound/DMSO in the assay buffer (50 mM Tris, pH 7.5, 0.01% Tween-20, 5 mM mgCl2, 0.01% BSA, 5 mM DTT), containing […] Biotin-labeled BAD peptide substrate (AnaSpec 62269), 1 mM ATP, and 2.5 pM (Pim-1, Invitrogen PV3503) or 1.25 pM (Pim-3, Millipore 14-738) enzyme for 1 h at 25° C. Reactions were stopped by addition of 10 μL STOP Buffer (150 mM Tris, pH=7.5, 150 mM NaCl, 75 mM EDTA, 0.01% Tween-20, 0.3% BSA,) supplemented with Phospho-Bad (Ser112) Antibody (Cell Signaling 9291) diluted 666-fold, and Streptavidin donor beads (PerkinElmer 6760002) along with Protein-A acceptor beads (PerkinElmer 6760137) at 15 μg/mL each. Supplementation of the STOP buffer with beads and stopping the reactions were done under reduced light. Prior to the stopping reactions STOP buffer with beads was preincubated for 1 h in the dark at room temperature. After stopping the reactions, plates were incubated for 1 h in the dark at room temperature before reading on a PHERAstar FS plate reader (BMG Labtech) under reduced light.

Pim-2 = Pim-2 (Homo sapiens (Human), UniProt Q9P1W9); experiment: Pim-2 kinase assay; details: 1 mM ATP; read-out: Pim2 IC50
Experimental: Pim-2 kinase assay—20 μL reactions were run in white 384 well polystyrene plates dotted with 0.8 μL compound/DMSO in the assay buffer (50 mM Tris, pH 7.5, 0.01% Tween-20, 5 mM mgCl2, 0.01% BSA, 5 mM DTT), containing […] Fluorescein-labeled CREBtide peptide substrate (Invitrogen PV3508), 1 mM ATP, and 1 nM enzyme (Invitrogen PV3649) for 2 h at 25° C. Reactions were stopped by addition of 10 μL TR-FRET Dilution Buffer (Invitrogen PV3574) with 30 mM EDTA and 1.5 nM LanthaScreen Tb-CREB pSer133 antibody (Invitrogen PV3566). After 30 min. incubation at room temperature, plates were read on a PHERAstar FS plate reader (BMG Labtech).

Chain of Pim-2 (Q9P1W9 whole entry): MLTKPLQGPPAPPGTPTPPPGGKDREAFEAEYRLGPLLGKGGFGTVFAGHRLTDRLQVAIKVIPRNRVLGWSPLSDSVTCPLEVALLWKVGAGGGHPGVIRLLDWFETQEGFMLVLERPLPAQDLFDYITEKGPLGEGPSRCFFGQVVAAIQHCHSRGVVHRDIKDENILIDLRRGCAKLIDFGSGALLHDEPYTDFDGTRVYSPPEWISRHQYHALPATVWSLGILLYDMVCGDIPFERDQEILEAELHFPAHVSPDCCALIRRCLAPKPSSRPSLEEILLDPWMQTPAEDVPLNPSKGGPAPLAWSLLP
Chain of Pim-1 (P11309 whole entry): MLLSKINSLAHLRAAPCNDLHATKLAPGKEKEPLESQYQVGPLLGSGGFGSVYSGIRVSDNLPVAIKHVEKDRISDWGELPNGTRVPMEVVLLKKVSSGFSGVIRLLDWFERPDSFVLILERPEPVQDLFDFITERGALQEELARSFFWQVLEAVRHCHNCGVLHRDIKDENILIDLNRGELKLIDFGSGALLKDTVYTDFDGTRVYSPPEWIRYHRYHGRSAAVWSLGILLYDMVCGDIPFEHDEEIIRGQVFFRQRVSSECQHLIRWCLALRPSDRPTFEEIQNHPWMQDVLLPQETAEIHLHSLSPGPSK

SMILES: C[C@@H]1C[C@H](N)CN(c2ccncc2NCc2ccc(F)c(-c3c(F)cccc3F)n2)C1 [Example 19, 4-[(3S,5R)-3-Amino-5-methylpiperidin-1-yl]-N-{[6-(2,6-difluorophenyl)-5-fluoropyridin-2-yl]methyl}pyridin-3-amine]
- IC50 (Pim-1): < 10 nM
- IC50 (Pim-3): ≤ 10 nM
- IC50 (Pim-2): ≤ 100 nM

SMILES: COc1cccc(F)c1-c1nc(CNc2cnccc2N2C[C@H](C)C[C@H](N)C2)ccc1F [Example 20, 4-((3S,5R)-3-Amino-5-methylpiperidin-1-yl)-N-((5-fluoro-6-(2-fluoro-6-methoxyphenyl)pyridin-2-yl)methyl)pyridin-3-amine]
- IC50 (Pim-1): < 10 nM
- IC50 (Pim-3): 10 to 50 nM
- IC50 (Pim-2): 1000 to 10000 nM

SMILES: C[C@@H]1C[C@H](N)CN(c2ccncc2NCc2ccc(F)c(-c3c(F)cncc3F)n2)C1 [Example 21, 4-((3S,5R)-3-Amino-5-methylpiperidin-1-yl)-N-((3,3′,5′-trifluoro-2,4′-bipyridin-6-yl)methyl)pyridin-3-amine]
- IC50 (Pim-1): < 10 nM
- IC50 (Pim-3): ≤ 10 nM
- IC50 (Pim-2): 100 to 1000 nM

SMILES: C[C@@H]1C[C@H](N)CN(c2ccncc2NCc2ccc(F)c(-c3c(F)cccc3C#N)n2)C1 [Example 22, 2-(6-((4-((3S,5R)-3-Amino-5-methylpiperidin-1-yl)pyridin-3-ylamino)methyl)-3-fluoropyridin-2-yl)-3-fluorobenzonitrile]
- IC50 (Pim-1): < 10 nM
- IC50 (Pim-3): ≤ 10 nM
- IC50 (Pim-2): 100 to 1000 nM

SMILES: C[C@@H]1C[C@H](N)CN(c2ccncc2NCc2ccc(F)c(-c3ccccc3F)n2)C1 [Example 23, 4-((3S,5R)-3-Amino-5-methylpiperidin-1-yl)-N-((5-fluoro-6-(2-fluorophenyl)pyridin-2-yl)methyl)pyridin-3-amine]
- IC50 (Pim-1): < 10 nM
- IC50 (Pim-3): ≤ 10 nM
- IC50 (Pim-2): 100 to 1000 nM

SMILES: C[C@H]1CN(c2ccncc2NCc2ccc(F)c(-c3c(F)cc(C(C)(C)C#N)cc3F)n2)C[C@@H](N)[C@@H]1O [Example 24, 2-(4-{6-[({4-[(3R,4R,5S)-3-Amino-4-hydroxy-5-methylpiperidin-1-yl]pyridin-3-yl}amino)methyl]-3-fluoropyridin-2-yl}-3,5-difluorophenyl)-2-methylpropanenitrile]
- IC50 (Pim-1): < 10 nM
- IC50 (Pim-3): ≤ 10 nM
- IC50 (Pim-2): ≤ 100 nM

SMILES: C[C@@H]1C[C@H](N)CN(c2ccncc2NCc2ccc(F)c(-c3c(F)cc(C(C)(C)C#N)cc3F)n2)C1 [Example 24A, 2-(4-{6-[({4-[(3S,5R)-3-Amino-5-methylpiperidin-1-yl]pyridin-3-yl}amino)methyl]-3-fluoropyridin-2-yl}-3,5-difluorophenyl)-2-methylpropanenitrile]
- IC50 (Pim-1): < 10 nM
- IC50 (Pim-3): ≤ 10 nM
- IC50 (Pim-2): ≤ 100 nM

- IC50 (Pim-1): < 10 nM
- IC50 (Pim-3): ≤ 10 nM
- IC50 (Pim-2): 100 to 1000 nM
SMILES: C[C@H]1CN(c2ccncc2NCc2ccc(F)c(-c3c(F)cccc3F)c2)C[C@@H](N)[C@@H]1O [Example 24B, (3R,4R,5S)-3-Amino-5-methyl-1-(3-{[(2′,6,6′-trifluorobiphenyl-3-yl)methyl]amino}pyridin-4-yl)piperidin-4-ol]

SMILES: C[C@@H]1C[C@H](N)CN(c2ccncc2NCc2ccc(F)c(-c3c(F)cccc3F)c2)C1 [Example 25, 4-[(3S,5R)-3-Amino-5-methylpiperidin-1-yl]-N-[(2′,6,6′-trifluorobiphenyl-3-yl)methyl]pyridin-3-amine]
- IC50 (Pim-1): < 10 nM
- IC50 (Pim-3): ≤ 10 nM
- IC50 (Pim-2): 100 to 1000 nM

SMILES: C[C@@H]1C[C@H](N)CN(c2ccncc2NCc2ccc(F)c(-c3c(F)cc(C4(O)CCC4)cc3F)c2)C1 [Example 26, 1-(5′-((4-((3S,5R)-3-Amino-5-methylpiperidin-1-yl)pyridin-3-ylamino)methyl)-2,2′,6-trifluorobiphenyl-4-yl)cyclobutanol]
- IC50 (Pim-1): < 10 nM
- IC50 (Pim-3): ≤ 10 nM
- IC50 (Pim-2): 100 to 1000 nM

SMILES: C[C@@H]1C[C@H](N)CN(c2ccncc2NCc2ccc(F)c(-c3c(F)cc(C4(O)CCOCC4)cc3F)c2)C1 [Example 27, 4-(5′-((4-((3S,5R)-3-Amino-5-methylpiperidin-1-yl)pyridin-3-ylamino)methyl)-2,2′,6-trifluorobiphenyl-4-yl)tetrahydro-2H-pyran-4-ol]
- IC50 (Pim-1): < 10 nM
- IC50 (Pim-3): ≤ 10 nM
- IC50 (Pim-2): 100 to 1000 nM

SMILES: C[C@H]1CN(c2ccncc2NCc2cccc(-c3c(F)cccc3F)n2)C[C@@H](N)[C@@H]1O [Example 28, (3R,4R,5S)-3-Amino-1-[3-({[6-(2,6-difluorophenyl)pyridin-2-yl]methyl}amino)pyridin-4-yl]-5-methylpiperidin-4-ol]
- IC50 (Pim-1): < 10 nM
- IC50 (Pim-3): ≤ 10 nM
- IC50 (Pim-2): 100 to 1000 nM

SMILES: C[C@@H]1C[C@H](N)CN(c2ccncc2NCc2cccc(-c3c(F)cccc3F)n2)C1 [Example 29, 4-[(3S,5R)-3-Amino-5-methylpiperidin-1-yl]-N-{[6-(2,6-difluorophenyl)pyridin-2-yl]methyl}pyridin-3-amine]
- IC50 (Pim-1): < 10 nM
- IC50 (Pim-3): ≤ 10 nM
- IC50 (Pim-2): 100 to 1000 nM

SMILES: C[C@H]1CN(c2ccncc2NCc2ccnc(-c3c(F)cccc3F)n2)C[C@@H](N)[C@@H]1O [Example 30, (3R,4R,5S)-3-Amino-1-[3-({[2-(2,6-difluorophenyl)pyrimidin-4-yl]methyl}amino)pyridin-4-yl]-5-methylpiperidin-4-ol]
- IC50 (Pim-1): 10 to 50 nM
- IC50 (Pim-3): 10 to 50 nM
- IC50 (Pim-2): 1000 to 10000 nM

SMILES: C[C@@H]1C[C@H](N)CN(c2ccncc2NCc2ccnc(-c3c(F)cccc3F)n2)C1 [Example 31, 4-[(3S,5R)-3-Amino-5-methylpiperidin-1-yl]-N-{[2-(2,6-difluorophenyl)pyrimidin-4-yl]methyl}pyridin-3-amine]
- IC50 (Pim-1): < 10 nM
- IC50 (Pim-3): 10 to 50 nM
- IC50 (Pim-2): 1000 to 10000 nM

SMILES: C[C@H]1CN(c2ccncc2NCc2ccc(F)c(-c3c(F)cc(N4CCOCC4)cc3F)n2)C[C@@H](N)[C@@H]1O [Example 32, (3R,4R,5S)-3-Amino-1-(3-(((6-(2,6-difluoro-4-morpholinophenyl)-5-fluoropyridin-2-yl)methyl)amino)pyridin-4-yl)-5-methylpiperidin-4-ol]
- IC50 (Pim-1): < 10 nM
- IC50 (Pim-3): ≤ 10 nM
- IC50 (Pim-2): ≤ 100 nM

SMILES: C[C@@H]1C[C@H](N)CN(c2ccncc2NCc2ccc(F)c(-c3c(F)cc(N4CCOCC4)cc3F)n2)C1 [Example 33, 4-((3S,5R)-3-Amino-5-methylpiperidin-1-yl)-N-((6-(2,6-difluoro-4-morpholinophenyl)-5-fluoropyridin-2-yl)methyl)pyridin-3-amine]
- IC50 (Pim-1): < 10 nM
- IC50 (Pim-3): ≤ 10 nM
- IC50 (Pim-2): ≤ 100 nM

SMILES: C[C@H]1CN(c2ccncc2NCc2ccc(F)c(-c3c(F)cc(CO)cc3F)n2)C[C@@H](N)[C@@H]1O [Example 35, (3R,4R,5S)-3-Amino-1-{3-[({6-[2,6-difluoro-4-(hydroxymethyl)phenyl]-5-fluoropyridin-2-yl}methyl)amino]pyridin-4-yl}-5-methylpiperidin-4-ol]
- IC50 (Pim-1): < 10 nM
- IC50 (Pim-3): ≤ 10 nM
- IC50 (Pim-2): ≤ 100 nM

SMILES: C[C@@H]1C[C@H](N)CN(c2ccncc2NCc2ccc(F)c(-c3c(F)cc(CO)cc3F)n2)C1 [Example 36, (4-{6-[({4-[(3S,5R)-3-Amino-5-methylpiperidin-1-yl]pyridin-3-yl}amino)methyl]-3-fluoropyridin-2-yl}-3,5-difluorophenyl)methanol]
- IC50 (Pim-1): < 10 nM
- IC50 (Pim-3): ≤ 10 nM
- IC50 (Pim-2): ≤ 100 nM
